Data from PubChem BioAssay (NCI).
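At the GI50, growth is halved. TGI: total growth inhibition.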

Columns and labels:
Experiment in all cases: NCI-60 cell line screen, 384-well format
CCRF-CEM leukemia = tested on: CCRF-CEM leukemia
KM12 colon = tested on: KM12 colon
SW-620 colon = tested on: SW-620 colon
NCI-H23 lung = tested on: NCI-H23 lung
HOP-62 NSCLC = tested on: HOP-62 NSCLC
ACHN renal = tested on: ACHN renal
OVCAR-8 ovarian = tested on: OVCAR-8 ovarian
HL-60(TB) leukemia = tested on: HL-60(TB) leukemia
U251 glioblastoma = tested on: U251 glioblastoma
T-47D breast = tested on: T-47D breast
EKVX NSCLC = tested on: EKVX NSCLC
CAKI-1 renal = tested on: CAKI-1 renal
UACC-62 melanoma = tested on: UACC-62 melanoma
SN12C renal = tested on: SN12C renal
HOP-92 NSCLC = tested on: HOP-92 NSCLC
K-562 leukemia = tested on: K-562 leukemia
UACC-257 melanoma = tested on: UACC-257 melanoma
MDA-MB-468 breast = tested on: MDA-MB-468 breast
SK-MEL-5 melanoma = tested on: SK-MEL-5 melanoma
SF-295 CNS = tested on: SF-295 CNS
NCI-H460 NSCLC = tested on: NCI-H460 NSCLC
OVCAR-5 ovarian = tested on: OVCAR-5 ovarian
LOX IMVI melanoma = tested on: LOX IMVI melanoma
786-0 renal = tested on: 786-0 renal
DU-145 prostate = tested on: DU-145 prostate
MDA-MB-435 melanoma = tested on: MDA-MB-435 melanoma
SK-MEL-28 melanoma = tested on: SK-MEL-28 melanoma
OVCAR-4 ovarian = tested on: OVCAR-4 ovarian
MALME-3M melanoma = tested on: MALME-3M melanoma
RXF 393 renal = tested on: RXF 393 renal
MCF7 breast = tested on: MCF7 breast
MOLT-4 leukemia = tested on: MOLT-4 leukemia
BT-549 breast = tested on: BT-549 breast
A549 NSCLC = tested on: A549 NSCLC
SNB-19 CNS = tested on: SNB-19 CNS
NCI/ADR-RES ovarian = tested on: NCI/ADR-RES ovarian
HCT-15 colon = tested on: HCT-15 colon
IGROV1 ovarian = tested on: IGROV1 ovarian
HCC-2998 colon = tested on: HCC-2998 colon
HT29 colon = tested on: HT29 colon
NCI-H226 lung = tested on: NCI-H226 lung
RPMI-8226 leukemia = tested on: RPMI-8226 leukemia
M14 melanoma = tested on: M14 melanoma
OVCAR-3 ovarian = tested on: OVCAR-3 ovarian
SK-OV-3 ovarian = tested on: SK-OV-3 ovarian
COLO 205 colon = tested on: COLO 205 colon
TK-10 renal = tested on: TK-10 renal
UO-31 renal = tested on: UO-31 renal
PC-3 prostate = tested on: PC-3 prostate
HCT-116 colon = tested on: HCT-116 colon
NCI-H522 lung = tested on: NCI-H522 lung

Cc1cc(-c2nc(-c3ccc(OC(F)(F)F)cc3)no2)nn1Cc1ccnc(N2CCN(C3CC3)CC2)c1
GI50 (CCRF-CEM leukemia): < 0.01 µM
TGI (CCRF-CEM leukemia): < 0.01 µM
GI50 (KM12 colon): 5.2 µM
TGI (KM12 colon): 70.4 µM
GI50 (SW-620 colon): 12.1 µM
TGI (SW-620 colon): 89.7 µM
GI50 (NCI-H23 lung): < 0.01 µM
TGI (NCI-H23 lung): 84.8 µM
GI50 (HOP-62 NSCLC): < 0.01 µM
TGI (HOP-62 NSCLC): 20.7 µM
GI50 (ACHN renal): 12.6 µM
TGI (ACHN renal): > 100 µM
GI50 (OVCAR-8 ovarian): < 0.01 µM
TGI (OVCAR-8 ovarian): > 100 µM
GI50 (HL-60(TB) leukemia): 1.73 µM
TGI (HL-60(TB) leukemia): 11 µM
GI50 (U251 glioblastoma): 1.83 µM
TGI (U251 glioblastoma): > 100 µM
GI50 (T-47D breast): < 0.01 µM
TGI (T-47D breast): 1.5 µM
GI50 (EKVX NSCLC): < 0.01 µM
TGI (EKVX NSCLC): 62.6 µM
GI50 (CAKI-1 renal): 14.9 µM
TGI (CAKI-1 renal): > 100 µM
GI50 (UACC-62 melanoma): 9.33 µM
TGI (UACC-62 melanoma): 21.8 µM
GI50 (SN12C renal): 7.01 µM
TGI (SN12C renal): > 100 µM
GI50 (HOP-92 NSCLC): 3.45 µM
TGI (HOP-92 NSCLC): > 100 µM
GI50 (K-562 leukemia): < 0.01 µM
TGI (K-562 leukemia): 44.9 µM
GI50 (UACC-257 melanoma): < 0.01 µM
TGI (UACC-257 melanoma): 3.31 µM
GI50 (MDA-MB-468 breast): < 0.01 µM
TGI (MDA-MB-468 breast): < 0.01 µM
GI50 (SK-MEL-5 melanoma): < 0.01 µM
TGI (SK-MEL-5 melanoma): 2.24 µM
GI50 (SF-295 CNS): > 100 µM
TGI (SF-295 CNS): > 100 µM
GI50 (NCI-H460 NSCLC): < 0.01 µM
TGI (NCI-H460 NSCLC): < 0.01 µM
GI50 (OVCAR-5 ovarian): 15.7 µM
TGI (OVCAR-5 ovarian): 86.1 µM
GI50 (LOX IMVI melanoma): < 0.01 µM
TGI (LOX IMVI melanoma): 14.1 µM
GI50 ([…]-0 renal): 4.88 µM
TGI (786-0 renal): > 100 µM
GI50 (DU-145 prostate): 20.3 µM
TGI (DU-145 prostate): > 100 µM
GI50 (MDA-MB-435 melanoma): 5.96 µM
TGI (MDA-MB-435 melanoma): > 100 µM
GI50 (SK-MEL-28 melanoma): 12.9 µM
TGI (SK-MEL-28 melanoma): 28.7 µM
GI50 (OVCAR-4 ovarian): 28.7 µM
TGI (OVCAR-4 ovarian): > 100 µM
GI50 (MALME-3M melanoma): 4.82 µM
TGI (MALME-3M melanoma): 18.3 µM
GI50 (RXF 393 renal): < 0.01 µM
TGI (RXF 393 renal): < 0.01 µM
GI50 (MCF7 breast): 0.47 µM
TGI (MCF7 breast): 15.4 µM
GI50 (MOLT-4 leukemia): < 0.01 µM
TGI (MOLT-4 leukemia): 7.05 µM
GI50 (BT-549 breast): 2.06 µM
TGI (BT-549 breast): 35.9 µM
GI50 (A549 NSCLC): < 0.01 µM
TGI (A549 NSCLC): > 100 µM
GI50 (SNB-19 CNS): 10.9 µM
TGI (SNB-19 CNS): > 100 µM
GI50 (NCI/ADR-RES ovarian): < 0.01 µM
TGI (NCI/ADR-RES ovarian): > 100 µM
GI50 (HCT-15 colon): 1.44 µM
TGI (HCT-15 colon): 18.8 µM
GI50 (IGROV1 ovarian): 9.15 µM
TGI (IGROV1 ovarian): > 100 µM
GI50 (HCC-2998 colon): 4.19 µM
TGI (HCC-2998 colon): 20.2 µM
GI50 (HT29 colon): 2.43 µM
TGI (HT29 colon): 12.3 µM
GI50 (NCI-H226 lung): 4.01 µM
TGI (NCI-H226 lung): > 100 µM
GI50 (RPMI-8226 leukemia): < 0.01 µM
TGI (RPMI-8226 leukemia): > 100 µM
GI50 (M14 melanoma): 2.13 µM
TGI (M14 melanoma): 7.15 µM
GI50 (OVCAR-3 ovarian): 6.51 µM
TGI (OVCAR-3 ovarian): > 100 µM
GI50 (SK-OV-3 ovarian): < 0.01 µM
TGI (SK-OV-3 ovarian): > 100 µM
GI50 (COLO 205 colon): 5.77 µM
TGI (COLO 205 colon): > 100 µM
GI50 (TK-10 renal): 40.9 µM
TGI (TK-10 renal): > 100 µM
GI50 (UO-31 renal): 15.7 µM
TGI (UO-31 renal): > 100 µM
GI50 (PC-3 prostate): 2.99 µM
TGI (PC-3 prostate): 66.9 µM
GI50 (HCT-116 colon): < 0.01 µM
TGI (HCT-116 colon): > 100 µM
GI50 (NCI-H522 lung): < 0.01 µM
TGI (NCI-H522 lung): > 100 µM
